What is called HC50 is the concentration giving 50% haemolysis.

Each structure is given as a SMILES string. Read-outs that look alike come from different tables or passages of the source. Where a SMILES comes first, the peptide text is derived from it. Bridges are numbered along the chain shown (N, C = ends). The star is where a group is joined. Palmitoyl = CCCCCCCCCCCCCCCC(=O)*

The source of these data is article PMC7582905, “Effect of Disulfide Cyclization of Ultrashort Cationic Lipopeptides on Antimicrobial Activity and Cytotoxicity” (International Journal of Molecular Sciences, 2020).

Holding throughout (assay type): cell-based
The test system of series [1] is human red blood cells (hRBCs). The series is described as follows: Hemolysis assay. To be noted: peptide concentration causing 50% hemolysis; 4% (v/v) hRBCs in PBS, 1 h, 37 °C, absorbance 540 nm, triplicate. As for the experimental part: The hemolysis assay was performed by using the method reported previously. Fresh human red blood cells (hRBCs) with anticoagulant (EDTA) were rinsed three times with a PBS by centrifugation at 800× g for 10 min and diluted with PBS. The lipopeptides were serially diluted on a 96-well microtiter polystyrene plate and hRBCs were added up to a final volume of 100 μL. The peptide concentration ranged between 0.5 and 256 μg/mL and the final hRBCs concentration was 4% (v/v). Controls for zero hemolysis (blank) and 100% hemolysis consisted of hRBCs suspended in PBS and 1% of Triton-X 100, respectively. The plate was incubated for 1 h at 37 °C and then centrifuged (800× g, 10 min, 4 °C). Subsequently, the supernatant was […] to new microtiter plates and the absorbance at 540 nm was measured. All experiments were conducted in triplicate. HC50 was calculated using an ic50.tk tool. Protocol of the study received approval from the local Bioethics Committee at the Medical University of Gdańsk (NKBBN/262/2019, approval date: 10 June 2019).

Series [2] has as its system Staphylococcus epidermidis ATCC 14990. As for the experimental part:
(§1) The Staphylococcus aureus ATCC 25923, Staphylococcus epidermidis ATCC 14990, Escherichia coli ATCC 25922, Pseudomonas aeruginosa ATCC 9027, Candida albicans ATCC 10231, Candida glabrata ATCC 15126, Candida lipolytica PCM 2680-FY, and Candida tropicalis PCM 2709-FY strains were acquired from the Polish Collection of Microorganisms (PCM, Polish Academy of Sciences, Wrocław, Poland) and from the American Type Culture Collection (ATCC). All the strains were stored at −80 °C in Roti-Store cryo vials and before the tests were transferred into fresh Mueller–Hinton broth (MHB, Biocorp, Warsaw, Poland) for bacteria or RPMI-1640 (Sigma-Aldrich, Steinheim, Germany) for fungi and incubated for 24 h at 37 °C. Then, the cultures were seeded on Mueller–Hinton agar (BioMaxima, Lublin, Poland) or Sabouraud dextrose agar (SDA, BioMaxima, Lublin, Poland) plates, respectively, and incubated as just mentioned. These agar cultures were used for further microbiological assays. Cell densities for all assays were adjusted spectrophotometrically (Multiskan GO Microplate Spectrophotometer, Thermo Fisher Scientific, Vantaa, Finland) at 600 and 660 nm for bacteria and fungi, respectively.
(§2) MBECs were determined on 96-well polystyrene flat-bottom plates. For this purpose, 24 h cultures of microorganisms were diluted to obtain final density 5.0 × 10^5 CFU/mL and 2.0 × 10^5 CFU/mL of bacteria and fungi, respectively. Briefly, 100 µL of cell suspension was added into the test plates. After 24 h of incubation at 37 °C the wells were rinsed three times with a phosphate buffer saline (PBS, pH 7.4) to remove non-adherent cells. Subsequently, 100 μL of the test compounds in concentration range (0.5–256 μg/mL) were added to each well. After 24 h of incubation at 37 °C, 20 μL of a cell viability reagent was added (resazurin, 4 g/L; Sigma Aldrich, St. Louis, MO, USA). The MBEC was read after 1 h. The determined values were recorded as the lowest concentration at which the reduction of resazurin (from blue to pink) was lower or equal to 10 ± 0.5% as compared to the positive (100%) and negative (0%) controls. The reduction was monitored by measuring absorbance at 570 nm (reduced) and 600 nm (oxidized) using a microplate spectrophotometer (Multiskan GO Microplate Spectrophotometer, Thermo Fisher Scientific, Vantaa, Finland). All experiments were conducted in triplicate.

The subject of series [3] is Candida glabrata ATCC 15126. As for the experimental part: as §1, §2
The test system of series [4] is Pseudomonas aeruginosa ATCC 9027. On the procedure: as §1, §2
In series [5] the test system is Candida lipolytica PCM 2680-FY. On the procedure:
as §1, §2

Series [6] deals with Candida tropicalis PCM 2709-FY. On the procedure:
as §1, §2

Series [7] has as its system Candida albicans ATCC 10231. As for the experimental part: as §1, §2
In series [8] the test system is Escherichia coli ATCC 25922. As for the experimental part: as §1, §2
For series [9], the system named is human cervical adenocarcinoma cell line (HeLa S3). The series is described as follows: MTT assay. Particulars: 24 h incubation at 37 °C, six replicates per concentration, repeated at least twice. As for the experimental part: (§3) To assess the cytotoxicity of the test lipopeptides (IC50), the classic MTT assay on 96-well polystyrene plates was performed for human keratinocytes (HaCaT) and human cervical adenocarcinoma cell line (HeLa S3) acquired from the ATCC. The assay utilizes colorimetric determination of the cell metabolic activity and the color intensity reflects the number of live cells that can be measured spectrophotometrically. The cell line was cultured in a Dulbecco’s modified Eagle Medium (Invitrogen) supplemented with 10% fetal bovine serum (v/v), 100 units/mL of penicillin, 100 μg/mL of streptomycin, and 2 mM l-glutamine and was stored at 37 °C in a humidified 5% CO2 incubator. Briefly, a day after plating of 500 cells per well, a series of concentrations (0.1–200 μg/mL) of the test compounds were applied. DMSO was added to the control cells at a final concentration of 1.0% (v/v), which was related to the maximal concentration of the solvent compounds used in the experiment. After 24 h of incubation with the lipopeptides at 37 °C in a humidified 5% CO2 incubator, a medium containing 1 mg/mL of MTT (3-(4,5-dimethylthiazol-2-yl)-2,5-diphenyltetrazolium bromide) was added to the wells up to a final concentration of 0.5 mg/mL. Subsequently, the plates were incubated at 37 °C for 4 h. Then, the medium was removed by suction, and the formazan product was solubilized with DMSO. The background absorbance at 630 nm was subtracted from that at 570 nm for each well (Epoch, BioTek Instruments, Winooski, VT, USA). Six replicates were conducted for each concentration. All experiments were repeated at least twice and the resulting IC50 values were calculated with a GraFit 7 software (v. 7.0, Erithacus, Berkley, CA, USA).
For orientation: Tetrazolium dyes change colour on reduction, which living cells bring about.

Series [10] relates to human keratinocytes (HaCaT). The series is described as follows: MTT assay. Particulars: 24 h incubation at 37 °C, six replicates per concentration, repeated at least twice. On the procedure: as §3
The mark [11] stands for this setting: 24 h biofilm on polystyrene plates, 24 h exposure at 37 °C, resazurin, triplicate.

In turn, `CCCCCCCCCCCCCCCC(=O)N[C@H]1CSSC[C@@H](C(N)=O)NC(=O)[C@H](CCCCN)NC(=O)[C@H](CCCCN)NC(=O)[C@H](CCCCN)NC(=O)[C@H](CCCCN)NC1=O` [C2, C16-CKKKKC-NH2] (Palmitoyl-CKKKKC-NH2; disulfide 1-6) displayed a 50% haemolytic concentration (HC50) in series [1] of 30.6 ± 1.1 µg/mL. Also, the “MBEC S. epidermidis” value in series [2] (setting [11]) is 32 µg/mL. Further, the “MBEC C. glabrata” value in [3] (setting [11]) turned out to be 64 µg/mL. Further, the “MBEC P. aeruginosa” value in series [4] (setting [11]) was more than 256 µg/mL. The “MBEC C. lipolytica” value in series [5] (setting [11]) is 16 µg/mL. For the same compound, the “MBEC C. tropicalis” value in [6] (setting [11]) came out at 32 µg/mL. The “MBEC C. albicans” value in series [7] (setting [11]) came to 64 µg/mL. Besides, in series [8] (setting [11]), the “MBEC E. coli” value worked out at 64 µg/mL. Moreover, the “HeLa IC50” value in series [9] was 17.9 ± 2.1 µg/mL. Further, the “HaCaT IC50” value in series [10] was 26.9 ± 1.9 µg/mL.

Turning to `CCCCCCCCCCCCCCCC(=O)N[C@H]1CSSC[C@@H](C(N)=O)NC(=O)[C@H](CCCCN)NC(=O)[C@H](CCCCN)NC(=O)[C@H](CCCNC(=N)N)NC(=O)[C@H](CCCCN)NC1=O` [C4, C16-CKRKKC-NH2] (Palmitoyl-CKRKKC-NH2; disulfide 1-6), the HC50 in series [1] stood at 122.4 ± 16.5 µg/mL. Besides, in series [2] (ATCC 14990, 24 h), the “MBEC S. epidermidis” value stood at 32 µg/mL. The “MBEC C. glabrata” value in [3] (ATCC 15126, 24 h) is 64 µg/mL. Moreover, the “MBEC P. aeruginosa” value in series [4] (ATCC 9027, 24 h) was more than 256 µg/mL. In addition, in [5] (24 h), the “MBEC C. lipolytica” value is 16 µg/mL. Further, the “MBEC C. tropicalis” value in series [6] (PCM 2709-FY, 24 h) amounted to 32 µg/mL. Also, in [7] (ATCC 10231, 24 h), the “MBEC C. albicans” value came out at 32 µg/mL. For the same compound, the “MBEC E. coli” value in series [8] (ATCC 25922, 24 h) was determined as 64 µg/mL. Also, the “HeLa IC50” value in series [9] amounted to 27.5 ± 3.4 µg/mL. In series [10], the “HaCaT IC50” value came out at 33.8 ± 3.1 µg/mL.

Compound `CCCCCCCCCCCCCCCC(=O)N[C@H]1CSSC[C@@H](C(N)=O)NC(=O)[C@H](CCCCN)NC(=O)[C@H](CCCCN)NC(=O)[C@H](CCCNC(=N)N)NC(=O)[C@H](CCCNC(=N)N)NC1=O` [C7, C16-CRRKKC-NH2] (Palmitoyl-CRRKKC-NH2; disulfide 1-6) returned an HC50 in [1] of 92.0 ± 9.6 µg/mL. For the same compound, the “MBEC S. epidermidis” value in [2] (ATCC 14990, 24 h) was found to be 64 µg/mL. In addition, the “MBEC C. glabrata” value in series [3] (ATCC 15126, 24 h) is 64 µg/mL. Besides, in [4] (ATCC 9027, 24 h), the “MBEC P. aeruginosa” value is 256 µg/mL. In addition, in series [5] (24 h), the “MBEC C. lipolytica” value is 16 µg/mL. Moreover, the “MBEC C. tropicalis” value in series [6] (PCM 2709-FY, 24 h) worked out at 32 µg/mL. In addition, the “MBEC C. albicans” value in series [7] (ATCC 10231, 24 h) was found to be 64 µg/mL. Besides, in series [8] (ATCC 25922, 24 h), the “MBEC E. coli” value came out at 256 µg/mL. Moreover, in [9], the “HeLa IC50” value amounted to 20.9 ± 2.1 µg/mL. In [10], the “HaCaT IC50” value amounted to 21.3 ± 8.2 µg/mL.

In [1], `CCCCCCCCCCCCCCCC(=O)N[C@@H](CCCCN)C(=O)N[C@@H](CCCCN)C(=O)N[C@@H](CCCCN)C(=O)N[C@@H](CCCCN)C(N)=O` [L2, C16-KKKK-NH2] (Palmitoyl-KKKK-NH2) returned an HC50 of 105.9 ± 8.0 µg/mL. In addition, the “MBEC S. epidermidis” value in series [2] (ATCC 14990, 24 h) stood at 32 µg/mL. For the same compound, the “MBEC C. glabrata” value in series [3] (ATCC 15126, 24 h) was 256 µg/mL. Also, the “MBEC P. aeruginosa” value in series [4] (ATCC 9027, 24 h) is more than 256 µg/mL. For the same compound, the “MBEC C. lipolytica” value in [5] (24 h) was 64 µg/mL. In series [6] (PCM 2709-FY, 24 h), the “MBEC C. tropicalis” value is 128 µg/mL. In addition, the “MBEC C. albicans” value in [7] (ATCC 10231, 24 h) is 256 µg/mL. In addition, in [8] (ATCC 25922, 24 h), the “MBEC E. coli” value came out at 64 µg/mL. Also, in series [9], the “HeLa IC50” value was 12.8 ± 1.1 µg/mL. For the same compound, the “HaCaT IC50” value in [10] was 23.5 ± 1.3 µg/mL.

In the case of `CCCCCCCCCCCCCCCC(=O)N[C@@H](CCCCN)C(=O)N[C@@H](CCCNC(=N)N)C(=O)N[C@@H](CCCCN)C(=O)N[C@@H](CCCCN)C(N)=O` [L4, C16-KRKK-NH2] (Palmitoyl-KRKK-NH2), the HC50 in series [1] worked out at 79.8 ± 9.0 µg/mL. In series [2] (ATCC 14990, 24 h), the “MBEC S. epidermidis” value stood at 32 µg/mL. In series [3] (ATCC 15126, 24 h), the “MBEC C. glabrata” value came to 128 µg/mL. Moreover, the “MBEC P. aeruginosa” value in series [4] (ATCC 9027, 24 h) is more than 256 µg/mL. In series [5] (24 h), the “MBEC C. lipolytica” value worked out at 32 µg/mL. Moreover, in [6] (PCM 2709-FY, 24 h), the “MBEC C. tropicalis” value was 64 µg/mL. Further, the “MBEC C. albicans” value in series [7] (ATCC 10231, 24 h) stood at 128 µg/mL. In addition, the “MBEC E. coli” value in [8] (ATCC 25922, 24 h) amounted to 64 µg/mL. Further, the “HeLa IC50” value in series [9] is 3.0 ± 0.6 µg/mL. For the same compound, the “HaCaT IC50” value in series [10] is 4.3 ± 0.9 µg/mL.
